The nature of the data set: Pharmacokinetic evaluation in rats following single subcutaneous doses. The data set is classed as in vivo. The following applies: male Sprague-Dawley rats, single SC injection of 40 mg in 0.75 mL aqueous diluent, plasma 2 h to 14 d. The procedure: Species and Strain: Sprague-Dawley rats. Male; 450+/−50 grams.
Study Groups: 4 Groups. 12 subjects
Route of Injection: Subcutaneous (SC) injection into the interscapular region. Injection Vehicle: Aqueous Diluent: Water, 3% CMC low viscosity, 0.1% Tween 20, in 0.9% NaCl Dose Volumes: Dose suspensions were formulated as follows: • Group A: 20 mg powder in 0.75 mL Diluent • Group B: 40 mg microparticles in 0.75 mL Diluent • Group C: 20 mg powder in 0.75 mL Diluent • Group D: 50 mg powder in 0.75 mL Diluent Blood Collection: Blood samples were collected via a lateral tail vein after anesthesia with Halothane. A syringe without an anticoagulant was used for the blood collection, then the whole blood was transferred to tubes containing K2 EDTA and mixing beads (Microtainer®; MFG# BD365974). The blood samples were processed (the tubes are inverted 15–20 times and centrifuged for 2 minutes at >14,000 g's) to separate plasma. The plasma samples prepared in this manner were transferred to labeled plain tubes (Microtainer®; MFG# BD5962) and stored frozen at <−70° C. Blood Volumes: At least 250 μL blood for each time point during the first 24 hours and 400 μL for each time point thereafter.

The source of these data is patent US6987111B2 (Alkermes Controlled Therapeutics, II, priority 2003, dated 2006).

Regarding haloperidol pamoate [pamoate salt], the “extended release profile (plasma concentrations over time)” value was “good to excellent extended release profiles”.
